According to patent US8372955B2, “Purified antibody to the extracellular domain of NKp44L” (Assistance Publique Hopitaux de Paris, priority 2003, dated 2013):

What was measured:
purified CD4+ T cells [1] = type: cell-based, human; conditions: 6-mers peptide, preliminary experiment
purified CD4+ T cells [2] = experiment: NK lysis sensitivity of treated CD4+ T cells, 4-h 51Cr-release assay with activated autologous purified NK cells; type: cell-based, human; conditions: 6-mers peptide, preliminary experiment
Description: NK lines were generated from PBMC, and then purified using the StemSep cell separation system and the NK cell enrichment antibody cocktail (StemCell technologies). NK purified cells were cultured in MyeloCult H5100 medium (StemCell technologies) supplemented with 100 units rhIL-2 (Boheringer). The purity of these preparations was evaluated by flow cytometry after staining with anti-CD3 (BD), anti-CD56 (BD), anti-NKp44, and anti-NKp46 mAbs.
The cytololytic activity was assayed in 4-h ^51Cr-release assay as previously described. Briefly, the target cells were labeled for 2-h at 37° C. with 100 μCi per 10^6 cells Na^51Cr (Amersham), and washed twice with culture medium. The target cells were then distributed in round-bottomed 96-well microtiter plates (4×10^3 cells per well), and the effector cells were added at several E/T ratio. The plates were incubated 4-h at 37° C. The supernatant were then collected and ^51Cr-release was measured in a gamma counted. In experiments in which Abs were included, these were added to final concentration of 20 μg/ml. The relative specific ^51Cr-release was calculated as previously described. Values for spontaneous ^51Cr-release, which are deducted in the calculation, were between 10 and 20% of the total incorporated radioactivity. The results are presented after subtraction of the nonspecific lysis obtained with control targets. […]

**Q.** For “H-SWSNKS-OH [NH2-SWSNKS—COOH, NH2-SWSNKS—COOH (SEQ ID NO: 7)]”, which “Cell surface expression of NKp44L” value (purified CD4+ T cells [1]) is on record?
**A.** any increased

**Q.** What about the NK cytotoxic activity (purified CD4+ T cells [2]) of the same substance?
**A.** any increased
